Experimental data as given in patent US6759538B2, “Substituted diphenyl heterocycles useful for treating HCV infection” (priority 2001, dated 2004).

Biological target: HCV replicon
Assay: HCV replicon assay (luciferase)
Format: cell-based, Hepatitis C virus (HCV)
Settings: 5-2 Luc replicon cells, 24 hours with compound, luciferase emission; first symbol of Replicon/Western
Description: In one embodiment, the inhibitory activity of the compounds can be confirmed in a replicon assay that assesses the ability of a test compound to block or inhibit HCV replication in replicon cells. One example of a suitable replicon assay is the liver cell-line Huh 7-based replicon assay described in Lohmann et al., 1999, Science 285:110-113. A specific example of this replicon assay which utilizes luciferase translation is provided in the Examples Section. In one embodiment of this assay, the amount of test compound that yields a 50% reduction in translation as compared to a control cell (IC50) may be determined.
The inhibitory activity of certain exemplary compounds of the invention was confirmed using an HCV replicon assay. The HCV replicon can include such features as the HCV 5′ untranslated region including the HCV IRES, the HCV 3′ untranslated region, selected HCV genes encoding HCV polypeptides, selectable markers, and a reporter gene such as luciferase, GFP, etc. In the assay, actively dividing 5-2 Luc replicon-comprising cells (obtained from Rolf Bartenschlager; see Lohmann et al., 1999, Science 285:110-113) were seeded at a density of between about 5,000 and 7,500 cells/well onto 96 well plates (about 90 μl of cells per well) and incubated at 37° C. and 5% CO2 for 24 hours. Then, the test compound (in a volume of about 10 μl) was added to the wells at various concentrations and the cells were incubated for an additional 24 hours before luciferase assay. The media was aspirated from each well and Bright-Glo (Promega, Madison, Wis.) luciferase assay reagents were added to each well according to the manufacturer's instructions. Briefly, the Bright-Glo reagent was diluted 1:1 with PBS and 100 μl of diluted reagent was added to each well. After 5 min of incubation at room temperature, luciferin emission was quantified with a luminometer. In this assay, the amount of test compound that yielded a 50% reduction in luciferase emission (IC50) was determined.

O=C(Nc1cccc(-c2cc(-c3c(Cl)cccc3C3CCCC3)no2)c1)C(Cl)Cl [Compound 97, 2,2-Dichloro-N-[3-[3-(2-chloro-6-cyclopentylphenyl)-5-isoxazolyl]phenyl] Acetamide]
IC50: ≤ 10 µM

CN1CCN(c2cccc(Cl)c2-c2cc(-c3cccc(NC(=O)C(Cl)Cl)c3)on2)CC1 [Compound 99, 2,2-Dichloro-N-[3-[3-[2-chloro-6-(4-methylpiperazino)phenyl]-5-isoxazolyl]phenyl] Acetamide]
IC50: ≤ 10 µM

CCCCc1cccc(Cl)c1-c1cc(-c2cccc(NC(=O)C(Cl)Cl)c2)on1 [Compound 103, 2,2-Dichloro-N-[3-[3-(2-chloro-6-n-butylphenyl)-5-isoxazolyl]phenyl] Acetamide]
IC50: ≤ 10 µM

O=C(Nc1cccc(-c2cc(-c3c(C4CCCC4)cccc3C(F)(F)F)no2)c1)C(Cl)Cl [Compound 105, 2,2-Dichloro-N-[3-[3-(2-cyclopentyl-6-trifluoromethylphenyl)-5-isoxazolyl]phenyl] Acetamide]
IC50: ≤ 10 µM

O=C(Nc1ccc(S(=O)(=O)NN2CCOCC2)c(-c2cc(-c3c(Cl)cccc3Cl)no2)c1)C(Cl)Cl [Compound 107, 2,2-Dichloro-N-[3-[3-(2,6-dichlorophenyl)-5-isoxazolyl]-4-(N-morpholinosulfamoyl)-phenyl] Acetamide]
IC50: ≤ 10 µM

CN1CCN(c2cccc(C(F)(F)F)c2-c2cc(-c3cccc(NC(=O)C(Cl)Cl)c3)on2)CC1 [Compound 109, 2,2-Dichloro-N-[3-[3-[2-trifluoromethyl-6-(4-methylpiperazino)phenyl]-5-isoxazolyl]-phenyl] Acetamide]
IC50: ≤ 10 µM

O=C(Nc1cccc(-c2cc(-c3c(Cl)cccc3C3CCCCC3)no2)c1)C(Cl)Cl [Compound 111, 2,2-Dichloro-N-[3-[3-(2-chloro-6-cyclohexylphenyl)-5-isoxazolyl]phenyl] Acetamide]
IC50: ≤ 10 µM

O=C(Nc1cccc(-c2cc(-c3ccccc3OC(F)(F)F)no2)c1)C(Cl)Cl [Compound 113, 2,2-Dichloro-N-[3-[3-(2-trifluoromethoxyphenyl)-5-isoxazolyl]phenyl] Acetamide]
IC50: ≤ 10 µM

COC(=O)c1ccccc1-c1cc(-c2cccc(NC(=O)C(Cl)Cl)c2)on1 [Compound 115, 2,2-Dichloro-N-[3-[3-(2-carbomethoxy)phenyl-5-isoxazolyl]phenyl] Acetamide]
IC50: ≤ 10 µM

O=C(Nc1cccc(-c2cc(-c3c(Cl)cccc3-n3ccnc3)no2)c1)C(Cl)Cl [Compound 117, 2,2-Dichloro-N-[3-[3-[2-chloro-6-(N-imidazolyl)phenyl]-5-isoxazolyl]phenyl] Acetamide]
IC50: ≤ 10 µM

CC(C)Oc1ccccc1-c1cc(-c2cccc(NC(=O)C(Cl)Cl)c2)on1 [Compound 119, 2,2-Dichloro-N-[3-[3-(2-isopropyloxyphenyl)-5-isoxazolyl]phenyl] Acetamide]
IC50: ≤ 10 µM

CC(C)c1cccc(C(C)C)c1-c1cc(-c2cccc(NC(=O)C(Cl)Cl)c2)on1 [Compound 121, 2,2-Dichloro-N-[3-[3-(2,6-diisopropylphenyl)-5-isoxazolyl]phenyl] Acetamide]
IC50: ≤ 10 µM

O=C(Nc1cccc(-c2cc(-c3ccccc3-c3ccccc3)no2)c1)C(Cl)Cl [Compound 123, 2,2-Dichloro-N-[3-[3-(2-phenyl)phenyl-5-isoxazolyl]phenyl] Acetamide]
IC50: ≤ 10 µM

O=C(Nc1cccc(-c2cc(-c3c(Cl)cc(OCCN4CCCCC4)cc3Cl)no2)c1)C(Cl)Cl [Compound 125, 2,2-Dichloro-N-[3-[3-[2,6-dichloro-4-(N-piperidinylethylenoxy)phenyl]-5-isoxazolyl]-phenyl] Acetamide]
IC50: ≤ 10 µM

COc1ccc(NC(=O)C(Cl)Cl)cc1-c1cc(-c2c(Cl)cccc2Cl)no1 [Compound 127, 2,2-Dichloro-N-[3-[3-(2,6-dichlorophenyl)-5-isoxazolyl]-4-methoxyphenyl] Acetamide]
IC50: ≤ 10 µM

O=C(Nc1cccc(-c2cc(-c3ccccc3C3CCCC3)no2)c1)C(Cl)Cl [Compound 129, 2,2-Dichloro-N-[3-[3-(2-cyclopentylphenyl)-5-isoxazolyl]phenyl] Acetamide]
IC50: ≤ 10 µM

CN(C)CCN(C)c1cccc(Cl)c1-c1cc(-c2cccc(NC(=O)C(Cl)Cl)c2)on1 [Compound 131, 2-Dichloro-N-[3-[3-[2-chloro-6-(N,N-dimethylethylene-N′-methylamino)phenyl]-5-isoxazolyl]-phenyl] Acetamide]
IC50: ≤ 10 µM

O=C(Nc1cccc(-c2cc(-c3c(Cl)ccc(Cl)c3Cl)no2)c1)C(Cl)Cl [Compound 137, 2,2-Dichloro-N-[3-[3-(2,3,6-trichlorophenyl)-5-isoxazolyl]phenyl] Acetamide]
IC50: > 10 µM

O=C(O)c1ccc(Cl)c(-c2cc(-c3cccc(NC(=O)C(Cl)Cl)c3)on2)c1Cl [Compound 139, 2,2-Dichloro-N-[3-[3-(3-carboxy-2,6-dichlorophenyl)-5-isoxazolyl]phenyl] Acetamide]
IC50: > 10 µM

O=C(Nc1cccc(-c2cc(-c3cc(C(F)(F)F)ccc3Cl)no2)c1)C(Cl)Cl [Compound 141, 2,2-Dichloro-N-[3-[3-(2-chloro-5-trifluoromethylphenyl)-5-isoxazolyl]phenyl] Acetamide]
IC50: > 10 µM

O=C(Nc1cccc(-c2cc(-c3c(Cl)cc(Cl)cc3OCCN3CCOCC3)no2)c1)C(Cl)Cl [Compound 143, 2,2-Dichloro-N-[3-[3-[2,4-dichloro-6-(N-morpholino-2-ethyleneoxy)phenyl]-5-isoxazolyl]-phenyl] Acetamide]
IC50: > 10 µM

O=C(Nc1cccc(-c2cc(-c3c(Cl)cccc3Cl)no2)c1)C(F)F [Compound 145, 2,2-Difluoro-N-[3-[3-(2,6-dichlorophenyl)-5-isoxazolyl]phenyl] Acetamide]
IC50: > 10 µM

Cc1ccc(F)c(-c2cc(-c3cccc(NC(=O)C(Cl)Cl)c3)on2)c1F [Compound 149, 2,2-Dichloro-N-[3-[3-(2,6-difluoro-3-methylphenyl)-5-isoxazolyl]phenyl] Acetamide]
IC50: > 10 µM

CCOC(=O)C1CCN(c2cccc(Cl)c2-c2cc(-c3cccc(NC(=O)C(Cl)Cl)c3)on2)CC1 [Compound 151, 2,2-Dichloro-N-[3-[3-[2-chloro-6-(4-carboethoxypiperidino)phenyl]-5-isoxazolyl]-phenyl] Acetamide]
IC50: > 10 µM

CS(=O)(=O)c1cccc(F)c1-c1cc(-c2cccc(NC(=O)C(Cl)Cl)c2)on1 [Compound 153, 2,2-Dichloro-N-[3-[3-(2-fluoro-6-methylsulfonyl)phenyl-5-isoxazolyl]phenyl] Acetamide]
IC50: > 10 µM

O=C(O)c1ccccc1-c1cc(-c2cccc(NC(=O)C(Cl)Cl)c2)on1 [Compound 157, 2,2-Dichloro-N-[3-[3-(2-carboxyphenyl)-5-isoxazolyl]phenyl] Acetamide]
IC50: > 10 µM

O=C(Nc1cccc(-c2cc(-c3ccccc3OCc3ccccc3)no2)c1)C(Cl)Cl [Compound 161, 2,2-Dichloro-N-[3-[3-(2-benzyloxyphenyl)-5-isoxazolyl]phenyl] Acetamide]
IC50: > 10 µM

Cc1ccc(-c2cc(-c3c(Cl)cccc3Cl)no2)cc1NC(=O)C(Cl)Cl [Compound 165, 2,2-Dichloro-N-[3-[3-(2,6-dichlorophenyl)-5-isoxazolyl]-6-methylphenyl] Acetamide]
IC50: > 10 µM

Cc1c(NC(=O)C(Cl)Cl)cccc1-c1cc(-c2c(Cl)cccc2Cl)no1 [Compound 167, 2,2-Dichloro-N-[3-[3-(2,6-dichlorophenyl)-5-isoxazolyl]-2-methylphenyl] Acetamide]
IC50: > 10 µM

O=C(Nc1cc(-c2cc(-c3c(Cl)cccc3Cl)no2)ccc1N1CCOCC1)C(Cl)Cl [Compound 169]
IC50: > 10 µM

O=C(Nc1cc(-c2cc(-c3c(Cl)cccc3Cl)no2)ccc1OCCN1CCOCC1)C(Cl)Cl [Compound 171, 2,2-Dichloro-N-[3-[3-(2,6-dichlorophenyl)-5-isoxazolyl]-6-(N-morpholino-2-ethyleneoxy)phenyl] Acetamide]
IC50: > 10 µM

COc1ccc(-c2cc(-c3c(Cl)cccc3Cl)no2)cc1NC(=O)C(Cl)Cl [Compound 173, 2,2-Dichloro-N-[3-[3-(2,6-dichlorophenyl)-5-isoxazolyl]-6-methoxyphenyl] Acetamide]
IC50: ≤ 10 µM
